The text below walks through data of ChEMBL document CHEMBL3137667, “[Drug-induced liver injury; fourteenth updated edition of the bibliographic database of liver injuries and related drugs]” (Gastroenterol Clin Biol, 2004).

Series [1] in a line: Highest frequency of moderate liver toxicity observed during clinical trials, expressed as a percentage. [column '% BIOL' in source]. The note with it: human.
The nature of series [2]: Highest frequency of acute liver toxicity observed during clinical trials, expressed as a percentage. [column '% AIGUE' in source]. The settings on record: human.
Series [3] can be described thus: Times to onset, minimal and maximal, observed in the indexed observations. [column 'DELAI' in source]. The settings on record: human.
The conditions of series [4]: human, serum.
The conditions of series [5]: human, serum. This is another data set of the same source.
For series [6] the following is noted: human.
For series [7] the following is noted: human. The source holds these as a separate data set.
For series [8] the following is noted: human. This is another data set of the same source.
For series [9] the following is noted: human, serum, 4383 h.
For series [10] the following is noted: human. This is another data set of the same source.
For series [11] the following is noted: human. This is another data set of the same source.
The conditions of series [12]: human. This is another data set of the same source.
For series [13] the following is noted: human. The source holds these as a separate data set.
For series [14] the following is noted: human. The source holds these as a separate data set.
For series [15] the following is noted: human. This is another data set of the same source.
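For Hepatotoxicity (association with vascular disease) in this document: count of indexed literature references reporting vascular liver injury in humans, e.g. peliosis hepatitis, hepatic veno-occlusive disease or Budd-Chiari syndrome.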
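For Hepatotoxicity (benign tumour) in this document: value is a count of indexed literature references citing a benign tumour confirmed by histopathology.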
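For Hepatotoxicity (choleostasis) in this document: human cholestatic liver injury, shown by histopathology or by peak ALT or AST elevation over alkaline phosphatase ratio below 2, value counts indexed literature reports.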
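For Hepatotoxicity (chronic liver disease) in this document: chronic liver injury confirmed by histopathology or persistently raised serum aminotransferase activity beyond 6 months, value given as the count of indexed literature references.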
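For Hepatotoxicity (cirrhosis) in this document: value is a count of indexed literature references reporting cirrhosis confirmed by histopathology.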
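For Hepatotoxicity (cytolytic) in this document: human cytolytic liver injury, shown by histopathology or by a ratio above 5 of peak ALT or AST elevation to alkaline phosphatase elevation, value counts indexed references.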
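For Hepatotoxicity (granulomatous hepatitis) in this document: value is a count of indexed literature references reporting granulomatous liver disease confirmed by histopathology.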
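For Hepatotoxicity (malignant tumour) in this document: malignant tumour confirmed by histopathology, value gives the count of indexed literature references reporting it.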
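For Hepatotoxicity (severe hepatitis) in this document: human clinical data: severe hepatitis, meaning potentially life-threatening liver failure or clinically observed cases, the value counts how many indexed literature references report it.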
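For Hepatotoxicity (steatosis) in this document: steatosis confirmed by histopathology, value is the count of indexed references.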

`O=C(NCCN1CCOCC1)c1ccc(Cl)cc1` [MOCLOBEMIDE]: the “Hepatotoxicity (moderate)” value in series [1] is reported as 0%; in series [4], 1. The “Hepatotoxicity (acute)” value in series [2] is reported as 0%; in series [5] it was 1. Also, the “Hepatotoxicity (time to onset)” value in series [3] was determined as 1 week - 9 days. The “Hepatotoxicity (cytolytic)” value in [6] was found to be 0. Moreover, in [7], the “Hepatotoxicity (choleostasis)” value is recorded as 1. Further, in series [8], the “Hepatotoxicity (severe hepatitis)” value worked out at 1. In [9], the “Hepatotoxicity (chronic liver disease)” value is on record as 0. Besides, the “Hepatotoxicity (cirrhosis)” value in [10] is listed as 0. Further, the “Hepatotoxicity (granulomatous hepatitis)” value in series [11] was 0. Also, the “Hepatotoxicity (association with vascular disease)” value in series [12] was 0. For the same molecule, the “Hepatotoxicity (steatosis)” value in series [13] was found to be 0. Also, the “Hepatotoxicity (malignant tumour)” value in series [14] was determined as 0. In addition, in series [15], the “Hepatotoxicity (benign tumour)” value is 0.

Regarding `N=C(N)NC(=O)c1nc(Cl)c(N)nc1N` [AMILORIDE], the results for the “Hepatotoxicity (moderate)” value in [1] and in series [4] were 1.1% and 2, respectively. For the same molecule, the “Hepatotoxicity (acute)” value in series [2] stood at 0%; in [5] it was 0. In series [3], the “Hepatotoxicity (time to onset)” value stood at 2 weeks - 6 months. Also, in series [6], the “Hepatotoxicity (cytolytic)” value was found to be 0. For the same molecule, the “Hepatotoxicity (choleostasis)” value in series [7] was 0. Also, the “Hepatotoxicity (severe hepatitis)” value in series [8] worked out at 0. In addition, the “Hepatotoxicity (chronic liver disease)” value in series [9] was 0. Besides, the “Hepatotoxicity (cirrhosis)” value in series [10] was 0. Besides, the “Hepatotoxicity (granulomatous hepatitis)” value in series [11] is reported as 0. Also, the “Hepatotoxicity (association with vascular disease)” value in series [12] is 0. The “Hepatotoxicity (steatosis)” value in series [13] stood at 0. The “Hepatotoxicity (malignant tumour)” value in series [14] is on record as 0. Moreover, in series [15], the “Hepatotoxicity (benign tumour)” value is 0.

As to `C[S+](CC[C@H](N)C(=O)[O-])C[C@H]1O[C@@H](n2cnc3c(N)ncnc32)[C@H](O)[C@@H]1O` (stereo not given in full) [ADEMETIONINE], the figures for the “Hepatotoxicity (moderate)” value in series [1] and in [4] were 5% and 2, respectively. Besides, the “Hepatotoxicity (acute)” value in [2] is 0%; in series [5], 1. Moreover, in series [3], the “Hepatotoxicity (time to onset)” value came out at 3 days. For the same molecule, in series [6], the “Hepatotoxicity (cytolytic)” value stood at 1. In addition, in series [7], the “Hepatotoxicity (choleostasis)” value amounted to 0. Besides, the “Hepatotoxicity (severe hepatitis)” value in series [8] was 0. Besides, the “Hepatotoxicity (chronic liver disease)” value in series [9] came out at 0. For the same molecule, the “Hepatotoxicity (cirrhosis)” value in [10] was found to be 0. For the same molecule, the “Hepatotoxicity (granulomatous hepatitis)” value in series [11] amounted to 0. Further, in series [12], the “Hepatotoxicity (association with vascular disease)” value stood at 0. Also, in series [13], the “Hepatotoxicity (steatosis)” value was determined as 0. The “Hepatotoxicity (malignant tumour)” value in series [14] came out at 0. The “Hepatotoxicity (benign tumour)” value in series [15] is 0.

As to `CC(C)(S)C(=O)N[C@@H](CS)C(=O)O` [BUCILLAMINE], the entries for the “Hepatotoxicity (moderate)” value in series [1] and in series [4] were 9.4% and 5, respectively. For the same molecule, the “Hepatotoxicity (acute)” value was found to be 0% in series [2] and 0 in series [5]. Besides, the “Hepatotoxicity (time to onset)” value in series [3] is given as 2 weeks. Also, the “Hepatotoxicity (cytolytic)” value in series [6] turned out to be 0. In addition, in [7], the “Hepatotoxicity (choleostasis)” value was 0. The “Hepatotoxicity (severe hepatitis)” value in series [8] was determined as 0. Besides, the “Hepatotoxicity (chronic liver disease)” value in series [9] was found to be 0. In addition, the “Hepatotoxicity (cirrhosis)” value in series [10] was determined as 0. For the same molecule, the “Hepatotoxicity (granulomatous hepatitis)” value in [11] is given as 0. For the same molecule, the “Hepatotoxicity (association with vascular disease)” value in series [12] is 0. In addition, in series [13], the “Hepatotoxicity (steatosis)” value was determined as 0. Also, the “Hepatotoxicity (malignant tumour)” value in series [14] is on record as 0. Besides, the “Hepatotoxicity (benign tumour)” value in series [15] amounted to 0.
